Data as given in ChEMBL document CHEMBL3046407, “Toxicity of monoterpenes against larvae and adults of Colorado potato beetle, Leptinotarsa decemlineata Say (Coleoptera: Chrysomelidae)” (2007).

Tests used:
Type in all cases: functional
[1] = system: Leptinotarsa decemlineata; test: Insecticidal activity against third-instar larval stage of Leptinotarsa decemlineata infested potato leaves assessed as mortality at 20 ul after 12 hr relative to control
[2] = system: Leptinotarsa decemlineata; test: Insecticidal activity against adult Leptinotarsa decemlineata infested potato leaves assessed as mortality at 20 ul after 48 hr relative to control
[3] = system: Leptinotarsa decemlineata; test: Insecticidal activity against second-instar larval stage of Leptinotarsa decemlineata infested potato leaves assessed as mortality at 10 ul after 96 hr (reference value: 3.3 +/- 3.3%)
[4] = system: Leptinotarsa decemlineata; test: Insecticidal activity against second-instar larval stage of Leptinotarsa decemlineata infested potato leaves assessed as mortality at 20 ul after 48 hr (reference value: 3.3 +/- 3.3%)
[5] = system: Leptinotarsa decemlineata; test: Insecticidal activity against third-instar larval stage of Leptinotarsa decemlineata infested potato leaves assessed as mortality at 20 ul after 96 hr (reference value: 3.3 +/- 3.3%)
[6] = system: Leptinotarsa decemlineata; test: Insecticidal activity against third-instar larval stage of Leptinotarsa decemlineata infested potato leaves assessed as mortality at 10 ul after 24 hr relative to control
[7] = system: Leptinotarsa decemlineata; test: Insecticidal activity against first-instar larval stage of Leptinotarsa decemlineata infested potato leaves assessed as mortality at 20 ul after 24 hr relative to control
[8] = system: Leptinotarsa decemlineata; test: Insecticidal activity against second-instar larval stage of Leptinotarsa decemlineata infested potato leaves assessed as mortality at 10 ul after 12 hr relative to control
[9] = system: Leptinotarsa decemlineata; test: Insecticidal activity against adult Leptinotarsa decemlineata infested potato leaves assessed as mortality at 20 ul after 12 hr relative to control
[10] = system: Leptinotarsa decemlineata; test: Insecticidal activity against third-instar larval stage of Leptinotarsa decemlineata infested potato leaves assessed as mortality at 10 ul after 96 hr (reference value: 3.3 +/- 3.3%)
[11] = system: Leptinotarsa decemlineata; test: Insecticidal activity against first-instar larval stage of Leptinotarsa decemlineata infested potato leaves assessed as mortality at 20 ul after 12 hr relative to control
[12] = system: Leptinotarsa decemlineata; test: Insecticidal activity against third-instar larval stage of Leptinotarsa decemlineata infested potato leaves assessed as mortality at 20 ul after 24 hr relative to control
[13] = system: Leptinotarsa decemlineata; test: Insecticidal activity against adult Leptinotarsa decemlineata infested potato leaves assessed as mortality at 20 ul after 96 hr relative to control
[14] = system: Leptinotarsa decemlineata; test: Insecticidal activity against first-instar larval stage of Leptinotarsa decemlineata infested potato leaves assessed as mortality at 10 ul after 12 hr relative to control
[15] = system: Leptinotarsa decemlineata; test: Insecticidal activity against second-instar larval stage of Leptinotarsa decemlineata infested potato leaves assessed as mortality at 20 ul after 96 hr (reference value: 3.3 +/- 3.3%)
[16] = system: Leptinotarsa decemlineata; test: Insecticidal activity against second-instar larval stage of Leptinotarsa decemlineata infested potato leaves assessed as mortality at 20 ul after 24 hr (reference value: 3.3 +/- 3.3%)
[17] = system: Leptinotarsa decemlineata; test: Insecticidal activity against adult Leptinotarsa decemlineata infested potato leaves assessed as mortality at 10 ul after 48 hr relative to control
[18] = system: Leptinotarsa decemlineata; test: Insecticidal activity against second-instar larval stage of Leptinotarsa decemlineata infested potato leaves assessed as mortality at 10 ul after 24 hr (reference value: 3.3 +/- 3.3%)
[19] = system: Leptinotarsa decemlineata; test: Insecticidal activity against first-instar larval stage of Leptinotarsa decemlineata infested potato leaves assessed as mortality at 10 ul after 96 hr relative to control
[20] = system: Leptinotarsa decemlineata; test: Insecticidal activity against adult Leptinotarsa decemlineata infested potato leaves assessed as mortality at 10 ul after 96 hr relative to control
[21] = system: Leptinotarsa decemlineata; test: Insecticidal activity against second-instar larval stage of Leptinotarsa decemlineata infested potato leaves assessed as mortality at 20 ul after 12 hr relative to control
[22] = system: Leptinotarsa decemlineata; test: Insecticidal activity against first-instar larval stage of Leptinotarsa decemlineata infested potato leaves assessed as mortality at 10 ul after 48 hr relative to control
[23] = system: Leptinotarsa decemlineata; test: Insecticidal activity against third-instar larval stage of Leptinotarsa decemlineata infested potato leaves assessed as mortality at 20 ul after 48 hr (reference value: 3.3 +/- 3.3%)
[24] = system: Leptinotarsa decemlineata; test: Insecticidal activity against second-instar larval stage of Leptinotarsa decemlineata infested potato leaves assessed as mortality at 10 ul after 48 hr (reference value: 3.3 +/- 3.3%)
[25] = system: Leptinotarsa decemlineata; test: Insecticidal activity against first-instar larval stage of Leptinotarsa decemlineata infested potato leaves assessed as mortality at 20 ul after 48 hr relative to control
[26] = system: Leptinotarsa decemlineata; test: Insecticidal activity against third-instar larval stage of Leptinotarsa decemlineata infested potato leaves assessed as mortality at 10 ul after 12 hr relative to control
[27] = system: Leptinotarsa decemlineata; test: Insecticidal activity against third-instar larval stage of Leptinotarsa decemlineata infested potato leaves assessed as mortality at 10 ul after 48 hr (reference value: 3.3 +/- 3.3%)
[28] = system: Leptinotarsa decemlineata; test: Insecticidal activity against adult Leptinotarsa decemlineata infested potato leaves assessed as mortality at 20 ul after 24 hr relative to control
[29] = system: Leptinotarsa decemlineata; test: Insecticidal activity against first-instar larval stage of Leptinotarsa decemlineata infested potato leaves assessed as mortality at 20 ul after 96 hr relative to control
[30] = system: Leptinotarsa decemlineata; test: Insecticidal activity against adult Leptinotarsa decemlineata infested potato leaves assessed as mortality at 10 ul after 12 hr relative to control
[31] = system: Leptinotarsa decemlineata; test: Insecticidal activity against first-instar larval stage of Leptinotarsa decemlineata infested potato leaves assessed as mortality at 10 ul after 24 hr relative to control
[32] = system: Leptinotarsa decemlineata; test: Insecticidal activity against adult Leptinotarsa decemlineata infested potato leaves assessed as mortality at 10 ul after 24 hr relative to control

CC(C)=CCC/C(C)=C\CO [NEROL]
mortality [1]: 16.7%
mortality [2]: 10%
mortality [3]: 56.7%
mortality [4]: 46.7%
mortality [5]: 46.7%
mortality [6]: 56.7%
mortality [7]: 16.7%
mortality [8]: 13.3%
mortality [9]: 6.7%
mortality [10]: 80%
mortality [11]: 10%
mortality [12]: 16.7%
mortality [13]: 13.3%
mortality [14]: 13.3%
mortality [15]: 53.3%
mortality [16]: 16.7%
mortality [17]: 20%
mortality [18]: 16.7%
mortality [19]: 56.7%
mortality [20]: 23.3%
mortality [21]: 10%
mortality [22]: 36.7%
mortality [23]: 30%
mortality [24]: 36.7%
mortality [25]: 46.7%
mortality [26]: 26.7%
mortality [27]: 73.3%
mortality [28]: 6.7%
mortality [29]: 56.7%
mortality [30]: 13.3%
mortality [31]: 16.7%
mortality [32]: 16.7%

CC(=O)OC/C=C(/C)CCC=C(C)C [NERYL ACETATE]
mortality [1]: 23.3%
mortality [2]: 13.3%
mortality [3]: 0%
mortality [4]: 3.3%
mortality [5]: 43.3%
mortality [6]: 0%
mortality [7]: 10%
mortality [8]: 0%
mortality [9]: 3.3%
mortality [10]: 10%
mortality [11]: 6.7%
mortality [12]: 23.3%
mortality [13]: 30%
mortality [14]: 0%
mortality [15]: 6.7%
mortality [16]: 3.3%
mortality [17]: 26.7%
mortality [18]: 0%
mortality [19]: 0%
mortality [20]: 70%
mortality [21]: 3.3%
mortality [22]: 0%
mortality [23]: 33.3%
mortality [24]: 0%
mortality [25]: 10%
mortality [26]: 0%
mortality [27]: 6.7%
mortality [28]: 10%
mortality [29]: 10%
mortality [30]: 0%
mortality [31]: 0%
mortality [32]: 20%
